Data published in publication PMC6920997, “Total Phenolic and Flavonoid Content and Biological Activities of Extracts and Isolated Compounds of Cytisus villosus Pourr” (Biomolecules, 2019).
Converted amounts (≈) assume the structure as drawn. Like-named read-outs stand apart in the source and are kept apart here.

What was measured:
[1] = test system: Aspergillus fumigatus; assay: Antifungal assay A. fumigatus; format: cell-based; conditions: Concentration: 50 μg/mL, <50 considered inactive, read-out: % Growth Inhibition A. fumigatus
Experimental: (§1) Extracts and pure compounds were tested for their antimicrobial activity against Staphylococcus aureus, methicillin-resistant S. aureus (MRSA), Escherichia coli, Pseudomonas aeruginosa, and Mycobacterium intracellulare. The antifungal activities were evaluated against a panel of pathogenic fungi, including Candida albicans, C. glabrata, C. krusei, Aspergillus fumigatus, and Cryptococcus neoformans, associated with opportunistic infections.

[2] = test system: L. donovani axenic amastigotes; assay: Antileishmanial Alamar Blue assay, axenic amastigotes; format: cell-based; conditions: Leishmania donovani; for IC50: read-out: L. donovani Amastigote IC50; for IC90: read-out: L. donovani Amastigote IC90
Excerpt: (§2) The in vitro antileishmanial and antitrypanosomal assays were done on cell cultures of L. donovani promastigotes, axenic amastigotes, THP1-amastigotes, and Trypanosoma brucei trypomastigotes by Alamar Blue assays. The conditions for seeding the THP1 cells, exposure to the test samples, and evaluation of cytotoxicity were the same as described in parasite-rescue and transformation assay. IC50 and IC90 values were computed from the dose response curves using XLfit software (XLfit 5.3.1, IDBS analytical, Boston MA, USA). DFMO (difluoromethylornithine) was used as the positive control. The antiprotozoal activity of C. villosus extracts and isolated compounds were evaluated in vitro against L. donovani promastigotes, axenic amastigotes, and intracellular amastigotes in THP1 cells. The extracts and some isolated compounds were also evaluated against T. brucei trypomastigote forms. All the extracts and compounds were simultaneously tested against THP1 cell for determination of general cytotoxicity. The extracts and isolated compounds were also evaluated for their antimalarial activity against chloroquine-sensitive (D6, Sierra Leone) and chloroquine-resistant strains (W2, Indochina) strains of Plasmodium falciparum. Furthermore, they were tested for cytotoxicity against the Vero cell line.

[3] = test system: Cryptococcus neoformans; assay: Antifungal assay C. neoformans; format: cell-based; conditions: for inhibition at 50 µg/mL: Concentration: 50 μg/mL, <50 considered inactive, read-out: % Growth Inhibition C. neoformans
Experimental: as §1

[4] = test system: L. donovani promastigotes; assay: Antileishmanial Alamar Blue assay, promastigotes; format: cell-based; conditions: Leishmania donovani; for IC50: read-out: L. donovani Promastigote IC50; for IC90: read-out: L. donovani Promastigote IC90
Excerpt: as §2

[5] = test system: Escherichia coli; assay: Antibacterial assay E. coli; format: cell-based; conditions: for inhibition at 50 µg/mL: Concentration: 50 μg/mL, <50 considered inactive, read-out: % Growth Inhibition E. coli
Experimental: as §1

[6] = test system: Pseudomonas aeruginosa; assay: Antibacterial assay P. aeruginosa; format: cell-based; conditions: for inhibition at 50 µg/mL: Concentration: 50 μg/mL, <50 considered inactive, read-out: % Growth Inhibition P. aeruginosa
Experimental: as §1

[7] = test system: THP1 cells; assay: THP1 cytotoxicity; format: cell-based
Excerpt: as §2

[8] = THP1 cytotoxicity; format: cell-based; conditions: human
Excerpt: as §2

[9] = test system: Candida albicans; assay: Antifungal assay C. albicans; format: cell-based; conditions: for inhibition at 50 µg/mL: Concentration: 50 μg/mL, <50 considered inactive, read-out: % Growth Inhibition C. albicans
Experimental: as §1

[10] = test system: methicillin-resistant S. aureus (MRSA); assay: Antibacterial assay MRSA; format: cell-based; conditions: Staphylococcus aureus, Concentration: 50 μg/mL, <50 considered inactive, read-out: % Growth Inhibition MRSA
Experimental: as §1

[11] = test system: L. donovani intracellular amastigotes in THP1 cells; assay: Antileishmanial assay, intracellular amastigotes in THP1 cells; format: cell-based; conditions: Leishmania donovani; for IC50: THP-1, read-out: L. donovani Amastigote/THP1 IC50; for IC90: THP-1, read-out: L. donovani Amastigote/THP1 IC90
Excerpt: as §2

[12] = DPPH radical scavenging assay; conditions: mean ± SD of three measurements
Experimental: The antioxidant activity of the extracts and pure isolated compounds was determined by applying the 2,2-diphenyl-1-picrylhydrazyl (DPPH) radical scavenging method.

[13] = test system: P. falciparum (W2 Clone); assay: Antimalarial assay, chloroquine-resistant W2 clone; format: cell-based, Plasmodium falciparum; conditions: for SI (second SI column of Table 7, presumably W2): selectivity index = IC50 for cytotoxicity/IC50 for antimalarial activity
Excerpt: as §2

[14] = Cytotoxicity against Vero cell line (antimalarial counterscreen); format: cell-based; conditions: African green monkey, column head does not name the cells, read-out: IC50 (third IC50 column of Table 7, presumably Vero cytotoxicity)
Excerpt: as §2

[15] = test system: P. falciparum (D6 Clone); assay: Antimalarial assay, chloroquine-sensitive D6 clone; format: cell-based, Plasmodium falciparum; conditions: for SI (first SI column of Table 7, presumably D6): selectivity index = IC50 for cytotoxicity/IC50 for antimalarial activity
Excerpt: as §2

[16] = test system: iNOS; assay: Inhibition of iNOS (intracellular NO production) in RAW 264.7 macrophages; format: cell-based; conditions: Mus musculus, RAW264.7; RAW 264.7 cells; NA = no activity at 25 µg/mL (pure compounds) or 100 µg/mL (extracts)
Experimental: The extracts and isolated compounds of C. villosus were evaluated in terms of their interaction with cellular targets related to inflammation and metabolic disorders, such as iNOS and NF-κB. The inhibition of intracellular NO production as a result of iNOS activity was assayed in mouse macrophages (RAW 264.7cells). Cytotoxicity of test samples to macrophages was also determined in parallel to check if the inhibition of iNOS was due to cytotoxic effects.

[17] = test system: NF-κB; assay: Reporter gene assay for the inhibition of NF-κB; format: cell-based; conditions: PMA-treated cells, luciferase reporter; NA = no activity at 25 µg/mL (pure compounds) or 100 µg/mL (extracts); read-out: Inhibition of NF-kB IC50
Experimental: Reporter gene assay for the inhibition of NF-κB Activity was performed as described earlier. In brief, cells transfected with NF-κB luciferase plasmid construct were plated in 96-well plates at a density of 1.25 × 10^5 cells/well. After 24 h, cells were treated with the test compounds and, after incubating for 30 min, phorbol 12-myristate 13-acetate (PMA) (Sigma-Aldrich, Burlington MA, USA) (70 ng/mL) was added and further incubated for 6−8 h. Luciferase activity was measured as described above. Percent decrease in luciferase activity was calculated relative to the vehicle control. Parthenolide (Sigma-Aldrich, Burlington MA, USA) was used as a positive control.

[18] = test system: Staphylococcus aureus; assay: Antibacterial assay S. aureus; format: cell-based; conditions: pure compounds
Experimental: as §1

[19] = test system: Trypanosoma brucei trypomastigotes; assay: Antitrypanosomal Alamar Blue assay; format: cell-based; conditions: Trypanosoma brucei, Table 4
Excerpt: as §2

Row | IC50 [2] [nM] | IC90 [2] [nM] | IC50 [4] [nM] | IC90 [4] [nM] | IC50 [11] [nM] | IC90 [11] [nM] | IC50 [16] [µg/mL] | SMILES | inhibition at 50 µg/mL [3] [%] | inhibition at 50 µg/mL [5] [%] | inhibition at 50 µg/mL [6] [%] | inhibition at 50 µg/mL [9] [%] | inhibition at 50 µg/mL [10] [%] | SI (second SI column of Table 7, presumably W2) [13] | SI (first SI column of Table 7, presumably D6) [15] | further results
1 | 211 | 374 | 136 | 215 | 188 | 421 | – | C[C@@H]1[C@H](O)[C@@H](C)/C=C/C=C/C=C/C=C/C=C/C=C/C=C/[C@H](O[C@@H]2O[C@H](C)[C@@H](O)[C@H](N)[C@@H]2O)C[C@@H]2O[C@](O)(C[C@@H](O)C[C@@H](O)[C@H](O)CC[C@@H](O)C[C@@H](O)CC(=O)O[C@H]1C)C[C@H](O)[C@H]2C(=O)O [Amphotericin B, reference compound] | 100 | 0 | 0 | 100 | 1 | – | – | inhibition at 50 µg/mL [1]: 93%; THP1 Cytotoxicity C90 ([7]; human): >2 µM; IC50 [8]: > 2000 nM
2 | – | – | – | – | – | – | – | O=C1O[C@H]([C@@H](O)CO)C(O)=C1O [Ascorbic acid] | – | – | – | – | – | – | – | DPPH Scavenging IC50 [12]: 43 ± 6 µg/mL
3 | – | – | – | – | – | – | – | O=C(O)c1cn(C2CC2)c2cc(N3CCNCC3)c(F)cc2c1=O [CIPRO, Ciprofloxacin, reference compound] | 0 | 100 | 96 | 0 | 0 | – | – | –
4 | – | – | – | – | – | – | – | CCN(CC)CCCC(C)Nc1ccnc2cc(Cl)ccc12 (centres unmarked) [CQ, Chloroquine, reference compound] | – | – | – | – | – | >2.1 | >9 | IC50 ([13]; Plasmodium falciparum, W2, read-out: IC50 (second IC50 column of Table 7, presumably P. falciparum W2)): 0.116 µg/mL (≈ 0.363 µM); IC50 [14]: > 0.238 µg/mL; inhibition at 0.0793 µg/mL ([15]; Plasmodium falciparum, D6, read-out: %Inhibition P. falciparum (D6 Clone)): 100%; IC50 ([15]; Plasmodium falciparum, read-out: IC50): < 0.026 µg/mL
5 | – | – | – | – | – | – | 9 (≈ 33.3 µM) | O=c1c(-c2ccc(O)cc2)coc2cc(O)cc(O)c12 [Compound 1, genistein] | – | – | – | – | – | – | – | IC50 [17]: 28 µg/mL (≈ 104 µM)
6 | > 10000 | > 10000 | > 10000 | > 10000 | > 10000 | > 10000 | 20 (≈ 48 µM) | O=c1cc(-c2ccccc2)oc2cc(O[C@@H]3O[C@H](CO)[C@@H](O)[C@H](O)[C@H]3O)cc(O)c12 [Compound 3, chrysin-7-O-β-D-glucopyranoside] | – | – | – | – | – | 1 | 1 | IC50 [18]: > 20 µg/mL; IC50 ([3]; pure compounds): > 20 µg/mL; IC50 ([19]; read-out: T. brucei IC50): > 10000 nM; IC90 ([19]; read-out: T. brucei IC90): > 10000 nM; IC50 ([14]; Vero cells): > 4.76 µg/mL; IC50 ([5]; pure compounds): > 20 µg/mL; IC50 ([6]; pure compounds): > 20 µg/mL; THP1 Cytotoxicity C90 [7]: >10 µM; IC50 ([8]; THP1 cells, read-out: THP1 Cytotoxicity IC50): > 10000 nM; IC50 ([9]; pure compounds): > 20 µg/mL
